ChEMBL document CHEMBL1201862, “PubChem BioAssay data set” (2004)
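Values below derive from 48-hour exposures of cells grown in 96-well plates, with endpoints linearly interpolated between the two concentrations bracketing the appropriate inhibition level. GI50 = concentration required for 50% inhibition of growth.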 Active and inactive are the calls of the source. No stated cut-off is given here; in the data, active = GI50 up to about 1.1 µM and inactive = higher. Where a SMILES comes first, the peptide text is derived from it. The star is where a group is joined. Cbz = O=C(OCc1ccccc1)*

Key:
Assay in all cases: NCI-60 cell line screen, 48 h
LOX IMVI = tested on: LOX IMVI
SR = tested on: SR
SK-MEL-2 = tested on: SK-MEL-2
CAKI-1 = tested on: CAKI-1
SN12C = tested on: SN12C
OVCAR-4 = tested on: OVCAR-4
SK-OV-3 = tested on: SK-OV-3
HCT-116 = tested on: HCT-116
OVCAR-8 = tested on: OVCAR-8
HCC 2998 = tested on: HCC 2998
HCT-15 = tested on: HCT-15
NCI-H23 = tested on: NCI-H23
ACHN = tested on: ACHN
RPMI-8226 = tested on: RPMI-8226
SNB-19 = tested on: SNB-19
UACC-257 = tested on: UACC-257
NCI-H522 = tested on: NCI-H522
NCI/ADR-RES = tested on: NCI/ADR-RES
MDA-MB-435 = tested on: MDA-MB-435
T47D = tested on: T47D

Measured: GI50

N#C/C(=C\c1ccc(O)c(O)c1)C(=O)NC1CCC(CC2CCC(NC(=O)/C(C#N)=C/c3ccc(O)c(O)c3)CC2)CC1 (stereo not drawn)
0.461 µM: HCT-15
active: LOX IMVI 0.356 µM | SR 0.424 µM | HCT-116 0.233 µM | OVCAR-8 0.459 µM | ACHN 0.718 µM | RPMI-8226 0.693 µM | NCI-H522 0.437 µM
inactive: SK-MEL-2 2 µM | CAKI-1 2.04 µM | SN12C 2.33 µM | OVCAR-4 3.32 µM | SK-OV-3 3.82 µM | HCC 2998 2.24 µM | NCI-H23 1.3 µM | SNB-19 3.52 µM | UACC-257 2.84 µM

O=C1CCC(=O)C(C(=O)CCC(=O)Nc2cccc(Cl)c2)C1 (stereo not drawn)
> 100 µM: HCT-15
inactive: LOX IMVI > 100 µM | SR > 100 µM | CAKI-1 > 100 µM | SN12C > 100 µM | SK-OV-3 > 100 µM | HCT-116 > 100 µM | OVCAR-8 > 100 µM | HCC 2998 > 100 µM | NCI-H23 > 100 µM | ACHN > 100 µM | RPMI-8226 > 100 µM | SNB-19 > 100 µM | UACC-257 > 100 µM | NCI-H522 > 100 µM

CC[C@H]1C=CCC[C@@]2(C[C@@H]3CC[C@@H]4[C@H](C(=O)OCCCCCCCCCCCCCCCC(=O)N(CCCN)CCCCN)[C@]5(CCC[C@@H](C)O5)NC(=[N+]34)N2)O1
0.0479 µM: HCT-15
inactive: OVCAR-4 1.34 µM
active: LOX IMVI 0.018 µM | NCI/ADR-RES 0.0944 µM | SR 0.0281 µM | SK-MEL-2 0.0259 µM | CAKI-1 0.0908 µM | SN12C 0.0753 µM | SK-OV-3 0.136 µM | HCT-116 0.0275 µM | OVCAR-8 0.155 µM | HCC 2998 0.0641 µM | MDA-MB-435 < 0.01 µM | NCI-H23 0.0724 µM | ACHN 0.0826 µM | RPMI-8226 0.0344 µM | SNB-19 0.381 µM | UACC-257 0.0171 µM | NCI-H522 0.0425 µM

C/C(NC(=O)c1ccccc1)=C(/C(=O)c1ccccc1)[C@@H]1OC(C)(C)O[C@@H]1[C@H]1COC(C)(C)O1
inactive: LOX IMVI 19.9 µM | NCI/ADR-RES 27.7 µM | SR 19.5 µM | SK-MEL-2 23.3 µM | CAKI-1 29.3 µM | SN12C 25.2 µM | OVCAR-4 27.6 µM | HCT-116 19.5 µM | OVCAR-8 29.2 µM | HCC 2998 23.9 µM | MDA-MB-435 19.5 µM | NCI-H23 22.9 µM | ACHN 67.3 µM | RPMI-8226 14.9 µM | SNB-19 46.2 µM | UACC-257 30.8 µM | NCI-H522 17.6 µM
32.8 µM: HCT-15

COC(=O)C(CC(=O)Nc1ccc(Cl)c(Cl)c1)C(=O)C(=O)NC1C2CC3CC(C2)CC1C3 (stereo not drawn)
> 100 µM: HCT-15
inactive: LOX IMVI > 100 µM | SR > 100 µM | SK-MEL-2 > 100 µM | CAKI-1 > 100 µM | SN12C > 100 µM | OVCAR-4 > 100 µM | SK-OV-3 > 100 µM | HCT-116 > 100 µM | OVCAR-8 > 100 µM | HCC 2998 > 100 µM | NCI-H23 > 100 µM | ACHN > 100 µM | RPMI-8226 > 100 µM | SNB-19 > 100 µM | UACC-257 > 100 µM | NCI-H522 > 100 µM

S=C(/N=c1\sc(Nc2ccc(Cl)cc2)nc2sc3c(c12)CCN(N1CCc2c(sc4nc(Nc5ccc(Cl)cc5)s/c(=N\C(=S)Nc5ccc(Cl)cc5)c24)C1)C3)Nc1ccc(Cl)cc1
42.2 µM: HCT-15
inactive: NCI/ADR-RES 48 µM | SK-MEL-2 23.4 µM | SN12C 19.2 µM | SK-OV-3 27.7 µM | HCT-116 17.9 µM | OVCAR-8 43.1 µM | NCI-H23 53.7 µM | ACHN 35.1 µM | SNB-19 55.2 µM | UACC-257 43.5 µM | NCI-H522 96.2 µM

COC(=O)/C(=C/c1ccc(OC)cc1)C(C(=O)O)=C(C)C
> 100 µM: HCT-15
inactive: LOX IMVI > 100 µM | SR > 100 µM | SK-MEL-2 > 100 µM | CAKI-1 > 100 µM | SN12C > 100 µM | SK-OV-3 > 100 µM | HCT-116 > 100 µM | OVCAR-8 > 100 µM | HCC 2998 > 100 µM | NCI-H23 > 100 µM | RPMI-8226 > 100 µM | SNB-19 > 100 µM | UACC-257 > 100 µM | NCI-H522 > 100 µM

CC1OC(OCC2OC(Oc3c(-c4ccc(O)cc4)oc4cc(O)cc(O)c4c3=O)C(OC3OCC(O)(CO)C3O)C(O)C2O)C(O)C(O)C1O (stereo not drawn)
inactive: LOX IMVI 51.9 µM | SR > 100 µM | SK-MEL-2 > 100 µM | CAKI-1 > 100 µM | SN12C > 100 µM | OVCAR-4 > 100 µM | SK-OV-3 > 100 µM | HCT-116 31.2 µM | OVCAR-8 > 100 µM | HCC 2998 > 100 µM | NCI-H23 > 100 µM | ACHN > 100 µM | RPMI-8226 > 100 µM | SNB-19 > 100 µM | UACC-257 > 100 µM | NCI-H522 > 100 µM
22.1 µM: HCT-15

NC(C(=O)O)c1ccc(C(=O)O)cc1 (stereo not drawn)
> 100 µM: HCT-15
inactive: LOX IMVI > 100 µM | SR > 100 µM | SK-MEL-2 > 100 µM | CAKI-1 > 100 µM | SN12C > 100 µM | OVCAR-4 > 100 µM | SK-OV-3 > 100 µM | OVCAR-8 > 100 µM | HCC 2998 > 100 µM | NCI-H23 > 100 µM | ACHN > 100 µM | RPMI-8226 > 100 µM | SNB-19 > 100 µM | UACC-257 > 100 µM | NCI-H522 > 100 µM

COc1ccc(C(=O)c2cc(OC)c(OC)c(OC)c2)cc1OC
1.58 µM: HCT-15
active: MDA-MB-435 0.436 µM
inactive: LOX IMVI 7.83 µM | NCI/ADR-RES 3.84 µM | SR 3.28 µM | SK-MEL-2 3.08 µM | SN12C 7.21 µM | HCT-116 4.94 µM | OVCAR-8 5.38 µM | HCC 2998 2.81 µM | NCI-H23 10.2 µM | ACHN 9.25 µM | RPMI-8226 7.53 µM | SNB-19 3.21 µM | UACC-257 27.2 µM | NCI-H522 3.63 µM

CCOC(=O)C(CC(=O)OC)NC(=O)C(CC(=O)OC)NC(=O)C(CC(=O)OC)NC(=O)C(CC(=O)OC)NC(=O)OCc1ccccc1 (stereo not drawn) (Cbz-D(OMe)D(OMe)D(OMe)D(OMe)-OEt; configuration not given here)
inactive: SR > 100 µM | SK-MEL-2 > 100 µM | SN12C > 100 µM | HCT-116 > 100 µM | OVCAR-8 > 100 µM | HCC 2998 > 100 µM | NCI-H23 > 100 µM | ACHN > 100 µM | RPMI-8226 > 100 µM | SNB-19 > 100 µM | T47D > 100 µM | UACC-257 > 100 µM
> 100 µM: HCT-15

C/C=C/C1=C(Cl)C(=O)[C@@H](Cl)[C@@]1(O)C(=O)OC [(+)-CRYPTOSPORIPSIN]
1.73 µM: HCT-15
inactive: LOX IMVI 2.24 µM | NCI/ADR-RES 2.15 µM | SR 1.84 µM | SK-MEL-2 2.72 µM | CAKI-1 2.39 µM | SN12C 2.65 µM | OVCAR-4 2.09 µM | SK-OV-3 15.1 µM | HCT-116 2.84 µM | OVCAR-8 2.08 µM | HCC 2998 3.28 µM | NCI-H23 4.08 µM | ACHN 2.41 µM | RPMI-8226 2.28 µM | SNB-19 3.8 µM | UACC-257 1.6 µM
active: NCI-H522 1.06 µM
